Measurements from the supplement of paper PMC10307832.

Assays:
Experiment in all cases: relative viability (nuclei count vs DMSO), 5 days (fraction); higher = more cells survive
Dovitinib + Palbociclib = compound: CN1CCN(c2ccc3nc(-c4c(N)c5c(F)cccc5[nH]c4=O)[nH]c3c2)CC1 [Dovitinib] + CC(=O)c1c(C)c2cnc(Nc3ccc(N4CCNCC4)cn3)nc2n(C2CCCC2)c1=O [Palbociclib] (partner 0.5 µM)
Outline: (§1)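 Dosing by pin tool came one day after lung cancer cell lines were seeded in 1536-well plates, using either one drug or a fixed anchor-drug dose plus five library-drug doses (not always all listed) in √10 steps. After 5 days, nuclei were counted on 4× images. Relative viability is treated-well nuclei count divided by vehicle-well nuclei count, and values are medians of duplicate plates.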

Dovitinib + Luminespib = compound: CN1CCN(c2ccc3nc(-c4c(N)c5c(F)cccc5[nH]c4=O)[nH]c3c2)CC1 [Dovitinib] + CCNC(=O)c1noc(-c2cc(C(C)C)c(O)cc2O)c1-c1ccc(CN2CCOCC2)cc1 [Luminespib] (partner 0.01 µM)
Outline: as §1

Dovitinib + OSI-027 = compound: CN1CCN(c2ccc3nc(-c4c(N)c5c(F)cccc5[nH]c4=O)[nH]c3c2)CC1 [Dovitinib] + COc1cccc2cc(-c3nc([C@H]4CC[C@H](C(=O)O)CC4)n4ncnc(N)c34)[nH]c12 [OSI-027] (partner 0.5 µM)
Outline: as §1

Dovitinib + Pictilisib = compound: CN1CCN(c2ccc3nc(-c4c(N)c5c(F)cccc5[nH]c4=O)[nH]c3c2)CC1 [Dovitinib] + CS(=O)(=O)N1CCN(Cc2cc3nc(-c4cccc5[nH]ncc45)nc(N4CCOCC4)c3s2)CC1 [Pictilisib] (partner 1 µM)
Outline: as §1

Row | Cell Line | relative viability (Dovitinib + Palbociclib; first compound 0.02 µM) | relative viability (Dovitinib + Palbociclib; first compound 0.06325 µM) | relative viability (Dovitinib + Palbociclib; first compound 0.2 µM) | relative viability (Dovitinib + Palbociclib; first compound 0.6325 µM) | relative viability (Dovitinib + Palbociclib; first compound 2 µM) | relative viability (Dovitinib + Luminespib; first compound 0.02 µM) | relative viability (Dovitinib + Luminespib; first compound 0.06325 µM) | relative viability (Dovitinib + Luminespib; first compound 0.2 µM) | relative viability (Dovitinib + Luminespib; first compound 0.6325 µM) | relative viability (Dovitinib + Luminespib; first compound 2 µM) | relative viability (Dovitinib + OSI-027; first compound 0.02 µM) | relative viability (Dovitinib + OSI-027; first compound 0.06325 µM) | relative viability (Dovitinib + OSI-027; first compound 0.2 µM) | relative viability (Dovitinib + OSI-027; first compound 0.6325 µM) | relative viability (Dovitinib + OSI-027; first compound 2 µM) | relative viability (Dovitinib + Pictilisib; first compound 0.02 µM) | relative viability (Dovitinib + Pictilisib; first compound 0.06325 µM) | relative viability (Dovitinib + Pictilisib; first compound 0.2 µM) | relative viability (Dovitinib + Pictilisib; first compound 0.6325 µM) | relative viability (Dovitinib + Pictilisib; first compound 2 µM)
1 | HCC-44 | 0.93 | 0.994 | 0.969 | 0.985 | 0.95 | 0.981 | 0.976 | 1.12 | 1.11 | 1.02 | 0.538 | 0.578 | 0.569 | 0.485 | 0.524 | 0.516 | 0.594 | 0.642 | 0.62 | 0.591
2 | NCI-H460 | 0.147 | 0.226 | 0.159 | 0.163 | 0.142 | 0.0302 | 0.034 | 0.0441 | 0.0303 | 0.0426 | 0.587 | 0.842 | 0.708 | 0.708 | 0.721 | 0.32 | 0.26 | 0.342 | 0.335 | 0.344
3 | SK-LU-1 | 0.39 | 0.372 | 0.358 | 0.481 | 0.38 | 0.203 | 0.19 | 0.204 | 0.18 | 0.198 | 0.3 | 0.386 | 0.359 | 0.388 | 0.316 | 0.64 | 0.657 | 0.513 | 0.73 | 0.576
4 | NCI-H322M | 0.46 | 0.471 | 0.468 | 0.482 | 0.487 | 0.835 | 0.883 | 0.831 | 0.803 | 0.792 | 0.518 | 0.526 | 0.557 | 0.502 | 0.608 | 0.501 | 0.446 | 0.464 | 0.542 | 0.674
5 | EKVX | 0.394 | 0.378 | 0.511 | 0.412 | 0.364 | 0.914 | 0.901 | 0.882 | 0.89 | 0.866 | 0.724 | 0.717 | 0.731 | 0.731 | 0.702 | 0.451 | 0.366 | 0.462 | 0.506 | 0.463
6 | NCI-H1734 | 0.371 | 0.387 | 0.355 | 0.338 | 0.416 | 0.177 | 0.231 | 0.185 | 0.182 | 0.198 | 0.655 | 0.632 | 0.687 | 0.575 | 0.55 | 0.475 | 0.457 | 0.413 | 0.437 | 0.397
7 | ABC-1 | 0.513 | 0.797 | 0.833 | 0.627 | 0.725 | – | 0.522 | 0.326 | 0.783 | 0.659 | 0.445 | 0.505 | 0.48 | 0.448 | 0.51 | 0.697 | 0.664 | 0.826 | 0.872 | 0.78
8 | NCI-H520 | 0.206 | 0.213 | 0.214 | 0.266 | 0.162 | 0.218 | 0.219 | 0.192 | 0.201 | 0.212 | 0.279 | 0.248 | 0.334 | 0.244 | 0.23 | 0.203 | 0.247 | 0.337 | 0.269 | 0.227
9 | EPLC-272H | 0.314 | 0.331 | 0.314 | 0.336 | 0.328 | 0.235 | 0.241 | 0.386 | 0.364 | 0.236 | 0.258 | 0.336 | 0.3 | 0.28 | 0.241 | 0.35 | 0.277 | 0.311 | 0.383 | 0.353
10 | UMC-11 | 0.334 | 0.34 | 0.346 | 0.343 | 0.348 | 0.964 | 1.03 | 0.979 | 1 | 0.996 | 0.467 | 0.39 | 0.523 | 0.47 | 0.497 | 0.806 | 0.783 | 0.85 | 0.85 | 0.735
11 | NCI-H1792 | 0.642 | 0.668 | 0.684 | 0.583 | 0.643 | 0.481 | 0.332 | 0.516 | 0.645 | 0.487 | 0.79 | 0.641 | 0.762 | 0.755 | 0.61 | 0.315 | 0.205 | 0.294 | 0.288 | 0.291
12 | NCI-H1993 | 0.856 | 0.721 | 0.639 | 0.547 | 0.66 | 0.873 | 0.716 | 0.816 | 0.728 | 0.346 | 0.599 | 0.545 | 0.597 | 0.505 | 0.573 | 0.762 | 0.886 | 0.825 | 0.819 | 0.787
13 | NCI-H1793 | 0.365 | 0.297 | 0.311 | 0.299 | 0.311 | 0.199 | 0.164 | 0.165 | 0.211 | 0.167 | 0.304 | 0.269 | 0.313 | 0.332 | 0.302 | 0.395 | 0.282 | 0.419 | 0.375 | 0.31
14 | NCI-H1395 | 0.608 | 0.575 | 0.661 | 0.605 | 0.652 | 0.703 | 0.661 | 0.757 | 0.629 | 0.665 | 0.637 | 0.706 | 0.682 | 0.651 | 0.672 | 0.563 | 0.518 | 0.651 | 0.783 | 0.612
15 | HCC-827 | 0.527 | 0.461 | 0.409 | 0.53 | 0.528 | 0.854 | 0.676 | 0.596 | 0.509 | 0.717 | 0.797 | 0.791 | 0.818 | 0.833 | 0.759 | 0.932 | 0.942 | 1.07 | 0.963 | 1.01
16 | ChaGo-K-1 | 0.927 | 0.936 | 0.866 | 0.912 | 0.881 | 0.631 | 0.627 | 0.567 | 0.609 | 0.628 | 0.549 | 0.556 | 0.635 | 0.542 | 0.614 | 0.653 | 0.654 | 0.829 | 0.883 | 0.972
17 | NCI-H2228 | 0.763 | 0.815 | 0.696 | 0.79 | 0.678 | 0.104 | 0.151 | 0.161 | 0.141 | 0.172 | 0.638 | 0.533 | 0.512 | 0.681 | 0.635 | 0.317 | 0.345 | 0.335 | 0.462 | 0.271
18 | NCI-H2170 | 0.419 | 0.448 | 0.399 | 0.39 | 0.407 | 0.892 | 0.79 | 0.857 | 0.538 | 0.652 | 0.572 | 0.711 | 0.718 | 0.708 | 0.723 | 0.268 | 0.337 | 0.318 | 0.265 | 0.322
19 | EMC-BAC-2 | 0.551 | 0.493 | 0.539 | 0.502 | 0.518 | 1.19 | 1.13 | 1.16 | 1.05 | 0.986 | 0.484 | 0.27 | 0.409 | 0.381 | 0.461 | 0.515 | 0.516 | 0.497 | 0.512 | 0.56
20 | NCI-H23 | 0.482 | 0.58 | 0.574 | 0.515 | 0.541 | 0.194 | 0.219 | 0.201 | 0.229 | 0.24 | 0.486 | 0.599 | 0.665 | 0.605 | 0.534 | 0.44 | 0.444 | 0.451 | 0.493 | 0.433
21 | RERF-LC-KJ | 1.09 | 1 | 1.08 | 1.1 | 1.01 | 1.32 | 1.25 | 1.4 | 1.19 | 1.47 | 0.639 | 0.623 | 0.653 | 0.56 | 0.574 | 0.556 | 0.643 | 0.472 | 0.428 | 0.49
22 | NCI-H358 | 0.153 | 0.141 | 0.118 | 0.135 | 0.135 | 0.31 | 0.306 | 0.428 | 0.813 | 0.306 | 0.703 | 0.769 | 0.905 | 0.819 | 0.739 | 0.343 | 0.308 | 0.367 | 0.356 | 0.45
23 | LC-2-ad | 0.484 | 0.449 | 0.472 | 0.484 | 0.504 | 0.991 | 0.994 | 1.01 | 0.979 | 0.995 | 0.879 | 0.929 | 0.984 | 0.744 | 0.831 | 0.535 | 0.463 | 0.446 | 0.439 | 0.36
24 | HCC-15 | 0.738 | 0.708 | 0.717 | 0.694 | 0.708 | 0.233 | 0.237 | 0.238 | 0.297 | 0.303 | 0.658 | 0.68 | 0.741 | 0.656 | 0.711 | 0.827 | 0.742 | 0.767 | 0.82 | 0.722
25 | NCI-H2405 | 0.511 | 0.516 | 0.546 | 0.504 | 0.556 | 0.657 | 0.579 | 0.7 | 0.58 | 0.817 | 0.627 | 0.594 | 0.591 | 0.656 | 0.692 | 0.431 | 0.372 | 0.458 | 0.456 | 0.408
26 | LXF-289 | 0.577 | 0.604 | 0.621 | 0.598 | 0.566 | 0.722 | 0.683 | 0.737 | 0.677 | 0.663 | 0.771 | 0.813 | 0.952 | 0.873 | 0.744 | 0.716 | 0.801 | 0.842 | 0.862 | 0.783
